Data as given in patent US20050260748A1, “Adult stem cells and uses thereof” (Michigan State University, priority 2004, published 2005).

How the values were obtained:
[1] = test system: mesenchymal stem cells (adipose stem cells); assay: Effect of lovastatin on formation of calcified ECM during osteogenic differentiation of adipose stem cells; assay type: cell-based, human
Procedure: Adipose stem cells were tested for their ability to differentiate into osteocytes by culturing the stem cells in a medium composed of a modified MEM (Chang et al. (1981) Somatic Cell Genetics 7: 235) with 10% FBS and supplemented with 0.1 μM dexamethasone, 50 μM L-ascorbate-2-phosphate, and 10 mM […] disodium for about two to four weeks. Osteogenesis was identified by the presence of calcified extracellular matrix (ECM) in unstained cells (FIG. 32(a)) or using Von Kossa staining (FIG. 32(b)), the quantitative measurement of calcium in calcified ECM (Zuk et al. (2001) Tissue Engineering 7: 211), and the quantitative measurement of calcium in culture medium.
Osteoporosis is a disorder that occurs when the amount of bone removed from the skeleton by bone-resorbing osteoclasts exceeds the amount of bone formed by osteoblasts. Statins may decrease bone resorption by preventing osteoclast activation that is mediated by farnesyl-pp and geranylgeranyl-pp (Cruz et al., (2002) Cleveland Clinic J. Med. 69:277-288). Experiments were performed to test the effect of lovastatin on the formation of calcified ECM using adipocyte cells that were differentiated into osteocytes as described supra. […]

[2] = test system: L1SV1A1 cells; assay: Albumin expression by immunostaining in immortal liver cell line cultured with hepatocyte growth factor; assay type: cell-based, human; details: HGF 20 ng/ml in modified Eagle's MEM with high calcium; days after initiation of induction
Procedure: Both immunostaining and Western blotting were used to characterize gene expression for clonally derived liver cell culture. For immunostaining, the cells grown in 35 mm plates were washed with phosphate-buffered saline (PBS) and fixed with 4% paraformaldehyde in PBS. After rinsing with PBS, the cells were permeabilized (0.5% Triton® X-100, 2% BSA, and 0.05% NaN3 in PBS) for 10 minutes. The cells were then incubated with the primary antibody diluted to the required concentration in PBS/Triton® X-100/BSA overnight at room temperature. After rinsing with PBS, the cells were incubated with a secondary antibody conjugated with FITC or Cy3 in PBS/Triton/BSA buffer for 1 hour at room temperature. […] After thoroughly washing the cells with PBS, the phase image and fluorescence of cells was observed and recorded using a Nikon Elipse TE 300 microscope connected to a digital camera and computer. […]
Furthermore, cells of the immortal liver cell line L1SV1A1, derived from HL1-1 (described infra), that were cultured in the modified Eagle's MEM (Chang et al. (1981) Somat. Cell Genet. 7: 235-53) containing hepatocyte growth factor (HGF) (He et al. (2003) Differentiation 71: 281-90) (20 ng/ml) expressed the hepatocyte protein, albumin, as detected by immunostaining (FIGS. 21(a)-21(c)). […]

Row | Molecule | formation of calcified ECM (microscopic inspection) ([1]; 0.2 μM lovastatin added with osteogenic medium, compared to induced control cultures without lovastatin) | total calcium ([1]; 0.2 μM lovastatin in osteogenic medium vs induced control, FIG. 35) | expression of the hepatocyte protein albumin (immunostaining) [2]
1 | CC[C@H](C)C(=O)O[C@H]1C[C@@H](C)C=C2C=C[C@H](C)[C@H](CC[C@@H]3C[C@@H](O)CC(=O)O3)[C@H]21 [lovastatin] | significantly less formation of calcified ECM | confirmed this observation | 
2 | hepatocyte growth factor: hepatocyte growth factor (HGF), used as hepatocyte differentiation agent |  |  | detectable at 33 days but not at 22 days
